Measurements taken from patent US20200245660A1, “AGROCHEMICAL-FREE SIRAITIA GROSVENORII EXTRACT, AND METHOD FOR PREPARING SAME” (priority 2015, published 2020).
Read-outs that look alike come from different tables or passages of the source.

Experiments:
[1] = cited from earlier work
physchem = assay type: physicochemical; details: LogPow
Experimental: These agrochemicals are each a compound having a distribution coefficient (LogPow) of 1.71 or more. Herein, the distribution coefficient of a target compound specifically means the 1-octanol/water distribution coefficient (LogPowow) thereof. When the target compound is added into two solvent phases (of 20 to 25° C.) of 1-octanol and water to make the two phases into an equilibrium state, the distribution coefficient more specifically means the concentration ratio of the compound between the two phases (1-octanol/water). The distribution coefficient may be gained by a flask method or an HPLC method. The distribution coefficient is a physicochemical index representing the hydrophobicity (solubility into lipid) of the compound. As the compound is higher in distribution coefficient, the compound is higher in hydrophobicity. It is known that as the compound is higher in hydrophobicity, the compound is higher in storability in a living body and is also stronger in toxicity. Thus, it can be stated that as the compound is higher in distribution coefficient, the compound is an agrochemical stronger in toxicity.
For reference, out of the six, about dimethomorph, tebuconazole, difenoconazole, metalaxyl, and metalaxyl M, the respective LogPow values are shown below. […]

**Q.** With CC(C)(C)C(O)(CCc1ccc(Cl)cc1)Cn1cncn1 (centres unmarked) [Tebuconazole, tebuconazole] as the molecule, how does the LogPow ([1]; 20 °C, Flask method) read?
**A.** The LogPow was 3.7.

**Q.** With COCC(=O)N(c1c(C)cccc1C)[C@H](C)C(=O)OC [Metalaxyl M, metalaxyl M] as the molecule, how does the LogPow ([1]; 25 °C, HPLC method) read?
**A.** The LogPow was 1.71.

**Q.** For CC(C)(C)C(O)C(Oc1ccc(Cl)cc1)n1cncn1 (centres unmarked) [Triadimenol, triadimenol], which chromatographic logP (physchem) is on record?
**A.** Its chromatographic logP is about 2.96.

**Q.** Which LogPow ([1]; 25 °C, Flask method) does the source give for CC1COC(Cn2cncn2)(c2ccc(Oc3ccc(Cl)cc3)cc2Cl)O1 (centres unmarked) [Difenoconazole, difenoconazole] here?
**A.** The LogPow was 4.4.

**Q.** With COCC(=O)N(c1c(C)cccc1C)C(C)C(=O)OC (centres unmarked) [Metalaxyl, metalaxyl] as the molecule, how does the LogPow ([1]; 25 °C, Flask method) read?
**A.** The LogPow was 1.75.
